According to ChEMBL document CHEMBL1129119, “N-Benzylated benzimidazol-2-one derivatives: activators of large-conductance Ca2+-dependent K+ channels” (1996):

Assay: Tested for maxi-K channel opening property using two -electrode voltage clamp recording from Xenopus laevis oocytes at 20 uM
Format: functional, frog, Oocyte

| Structure (SMILES) | Control current [%] |
| --- | --- |
| Oc1ccc(Cl)cc1Cn1c(O)nc2ccccc21 | 110.9 |
| Oc1ccc(Cl)cc1Cn1c(O)nc2cc(F)ccc21 | 105.9 |
| Oc1ccccc1CCn1c(O)nc2cc(C(F)(F)F)ccc21 | 119.5 |
| Oc1ccc(Cl)cc1Cn1c(O)nc2cc(I)ccc21 | 120.2 |
| Oc1ccc(Cl)cc1Cn1c(O)nc2ccncc21 | 100.8 |
| Oc1ccc(Cl)cc1Cn1c(O)nc2cc(Cl)ccc21 | 150.1 |
| Oc1ccc(Cl)cc1Cn1c(O)nc2cc(Cl)c(Cl)cc21 | 145.8 |
| O=c1[nH]c2cc(C(F)(F)F)ccc2n1Cc1cc(Cl)ccc1O | 133.4 |
| Cc1ccc2c(c1)nc(O)n2Cc1cc(Cl)ccc1O | 101.9 |
| Oc1ccc(Cl)cc1Cn1c(O)nc2cc(Cl)cc(Cl)c21 | 118.3 |
| Oc1ccc(Cl)cc1Cn1c(O)nc2ccc(Br)cc21 | 107.9 |
| O=c1[nH]c2cc(C(F)(F)F)ccc2n1-c1cc(Cl)ccc1O | 131.8 |
| Oc1ccc(Cl)cc1Cn1c(O)nc2cnccc21 | 107.2 |
| Oc1ccc2c(c1)nc(O)n2Cc1cc(Cl)ccc1O | 106 |
| Oc1ccccc1Cn1c(O)nc2cc(C(F)(F)F)ccc21 | 126 |
| COc1ccc(Cl)cc1Cn1c(O)nc2ccccc21 | 104.2 |
| Oc1ccc(Cl)cc1Cn1c(O)nc2cc(Br)ccc21 | 135.7 |
| O=[N+]([O-])c1ccc2c(c1)nc(O)n2Cc1cc(Cl)ccc1O | 163.1 |
| Oc1ccc(Cl)cc1Cn1c(O)nc2ccc(Cl)cc21 | 116.3 |
